Measured values taken from patent US10329302B2, “Bicyclic-fused heteroaryl or aryl compounds” (Pfizer Inc., priority 2014, dated 2019).

Each compound was assayed against human IRAK4 FL (Full Length) (Homo sapiens (Human), UniProt Q9NWZ3) (assay: IRAK4 Enzymatic DELFIA Assay, Protocol A). Details: human IRAK4 FL, 0.6 mM ATP (KM); read-out: IRAK4 DELFIA Protocol A IC50.
Chain of human IRAK4 FL (Full Length) (Q9NWZ3 whole entry): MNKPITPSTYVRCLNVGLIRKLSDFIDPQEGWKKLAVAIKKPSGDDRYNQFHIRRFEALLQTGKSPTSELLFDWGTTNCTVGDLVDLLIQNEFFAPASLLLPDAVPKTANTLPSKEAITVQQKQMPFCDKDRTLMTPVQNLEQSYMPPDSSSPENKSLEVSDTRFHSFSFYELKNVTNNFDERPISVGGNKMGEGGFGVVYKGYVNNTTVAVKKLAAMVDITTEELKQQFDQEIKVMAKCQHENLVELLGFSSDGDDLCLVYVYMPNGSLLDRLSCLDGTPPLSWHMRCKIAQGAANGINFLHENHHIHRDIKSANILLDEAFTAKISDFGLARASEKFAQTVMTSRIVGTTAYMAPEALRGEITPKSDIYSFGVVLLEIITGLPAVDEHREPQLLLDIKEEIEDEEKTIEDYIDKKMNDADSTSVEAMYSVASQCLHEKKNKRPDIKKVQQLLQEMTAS
Format: biochemical
`Cc1cnc(OC[C@@H]2CCC(=O)N2)c2cc(OC(C)C)c(C(N)=O)cc12` [Example 05, 4-methyl-1-{[(2S)-5-oxopyrrolidin-2-yl]methoxy}-7-(propan-2-yloxy)isoquinoline-6-carboxamide] showed an IC50 of 84 nM. In the case of `CC(C)Oc1cc2c(OC[C@@H]3CCN(C(=O)CC#N)C3)ccnc2cc1C(N)=O` [Example 23, 4-{[(3R)-1-(cyanoacetyl)pyrrolidin-3-yl]methoxy}-6-(propan-2-yloxy)quinoline-7-carboxamide], the IC50 is reported as 656 nM. `CC(C)Oc1cc2c(OCC3CN(C(=O)CC#N)C3)ccnc2cc1C(N)=O` [Example 60, 4-{[1-(cyanoacetyl)azetidin-3-yl]methoxy}-6-(propan-2-yloxy)quinoline-7-carboxamide] showed an IC50 of 8.9 nM. In the case of `CC(C)Oc1cc2c(OCC3CN(C(=O)CC#N)C3)nccc2cc1C(N)=O` [Example 69, 1-{[1-(cyanoacetyl)azetidin-3-yl]methoxy}-7-(propan-2-yloxy)isoquinoline-6-carboxamide], the IC50 is reported as 29 nM. `CC(C)Oc1cc2c(OCC3COCC(=O)N3)nccc2cc1C(N)=O` (stereo not drawn) [Example 116, 1-[(5-oxomorpholin-3-yl)methoxy]-7-(propan-2-yloxy)isoquinoline-6-carboxamide] gave an IC50 of 146 nM. With `CC(C)Oc1cc2c(OCC3NC(=O)C4CCCCC34)nccc2cc1C(N)=O` (stereo not drawn) [Example 118, 1-[(3-oxooctahydro-1H-isoindol-1-yl)methoxy]-7-(propan-2-yloxy)isoquinoline-6-carboxamide] the IC50 was 162 nM. Work on `NC(=O)c1cc2ccnc(OC[C@@H]3CCC(=O)N3)c2cc1OC1CCC1` [Example 120, 7-(cyclobutyloxy)-1-{[(2S)-5-oxopyrrolidin-2-yl]methoxy}isoquinoline-6-carboxamide] yielded an IC50 of 1140 nM. `CC(C)Oc1cc2c(OC[C@]34CCC[C@H]3CNC4)nccc2cc1C(N)=O` [Example 123, 1-[(3aR,6aR)-hexahydrocyclopenta[c]pyrrol-3a(1H)-ylmethoxy]-7-(propan-2-yloxy)isoquinoline-6-carboxamide] was tested, and the IC50 was 747 nM. `CC(C)Oc1cc2c(OC[C@]3(C)CCC(=O)N3)nccc2cc1C(N)=O` [Example 126, 1-{[(2S)-2-methyl-5-oxopyrrolidin-2-yl]methoxy}-7-(propan-2-yloxy)isoquinoline-6-carboxamide] gave an IC50 of 42 nM. `NC(=O)c1cc2ccnc(OC[C@@H]3CCC(=O)N3)c2cc1OC(F)F` [Example 129, 7-(difluoromethoxy)-1-{[(2S)-5-oxopyrrolidin-2-yl]methoxy}isoquinoline-6-carboxamide] showed an IC50 of 231 nM. `CC(C)Oc1cc2c(OC[C@@H]3C[C@@](C)(F)C(=O)N3)nccc2cc1C(N)=O` [Example 133, 1-{[(2S,4R)-4-fluoro-4-methyl-5-oxopyrrolidin-2-yl]methoxy}-7-(propan-2-yloxy)isoquinoline-6-carboxamide] was tested, and the IC50 was 175 nM. With `CC(C)Oc1cc2c(OC[C@@H]3C[C@H](C(C)(C)O)C(=O)N3)nccc2cc1C(N)=O` [Example 137, 1-{[(2S,4R)-4-(2-hydroxypropan-2-yl)-5-oxopyrrolidin-2-yl]methoxy}-7-(propan-2-yloxy)isoquinoline-6-carboxamide] the IC50 was 98 nM. `CC(C)Oc1cc2c(OCC3CCC(=O)NC3)nccc2cc1C(N)=O` (stereo not drawn) [Example 142, 1-[(6-oxopiperidin-3-yl)methoxy]-7-(propan-2-yloxy)isoquinoline-6-carboxamide] gave an IC50 of 1220 nM. With `CC(C)Oc1cc2c(OCC3CCS(=O)(=O)N3)nccc2cc1C(N)=O` (stereo not drawn) [Example 143, 1-[(1,1-dioxido-1,2-thiazolidin-3-yl)methoxy]-7-(propan-2-yloxy)isoquinoline-6-carboxamide] the IC50 was 2540 nM. In the case of `CC(C)Oc1cc2c(OC[C@H]3NC(=O)C[C@@H]3N)nccc2cc1C(N)=O` [Example 149, 1-{[(2S,3S)-3-amino-5-oxopyrrolidin-2-yl]methoxy}-7-(propan-2-yloxy)isoquinoline-6-carboxamide], the IC50 is reported as 105 nM.
